Reference: ChEMBL document CHEMBL1201861, “Genomics of Drug Sensitity in Cancer screening data, Wellcome Trust Sanger Institute”

Columns and labels:
Experiment in all cases: cells
Details in all cases: Homo sapiens
LB831-BLC = format: functional, cell-based;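 also: growth inhibition of LB831-BLC cells, read out with a cell viability assay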
Description: SANGER: Inhibition of human LB831-BLC cell growth in a cell viability assay.

A101D = format: functional, cell-based;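 also: growth inhibition of the cell line, measured with a viability assay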
Description: SANGER: Inhibition of human A101D cell growth in a cell viability assay.

ES3 = format: functional, cell-based;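 also: growth inhibition of ES3 cells, read out with a cell viability assay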
Description: SANGER: Inhibition of human ES3 cell growth in a cell viability assay.

HCE-T = format: functional, cell-based;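 also: cell viability assay read-out, reporting inhibition of HCE-T cell growth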
Description: SANGER: Inhibition of human HCE-T cell growth in a cell viability assay.

K562 = format: functional, cell-based
Description: SANGER: Inhibition of human K-562 cell growth in a cell viability assay.

TE-6 = format: functional, cell-based;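 also: growth inhibition of TE-6 cells, read out with a cell viability assay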
Description: SANGER: Inhibition of human TE-6 cell growth in a cell viability assay.

NB6 = format: functional, cell-based
Description: SANGER: Inhibition of human NB6 cell growth in a cell viability assay.

BB65-RCC = format: functional, cell-based;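 also: growth inhibition of the cell line, measured with a cell viability assay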
Description: SANGER: Inhibition of human BB65-RCC cell growth in a cell viability assay.

BB30-HNC = format: functional, cell-based;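 also: growth inhibition of the cultured cell line, read out by a cell viability assay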
Description: SANGER: Inhibition of human BB30-HNC cell growth in a cell viability assay.

NB69 = format: functional, cell-based;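 also: growth inhibition of NB69 cells, determined by a cell viability assay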
Description: SANGER: Inhibition of human NB69 cell growth in a cell viability assay.

NCI-H1395 = format: functional, cell-based;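 also: cell viability assay read-out quantifying reduced proliferation of human NCI-H1395 cells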
Description: SANGER: Inhibition of human NCI-H1395 cell growth in a cell viability assay.

CCRF-CEM = format: functional, cell-based;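 also: inhibition of CCRF-CEM cell growth, measured by a cell viability assay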
Description: SANGER: Inhibition of human CCRF-CEM cell growth in a cell viability assay.

OCI-AML2 = format: functional, cell-based;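 also: growth inhibition of OCI-AML2 cells, read out with a cell viability assay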
Description: SANGER: Inhibition of human OCI-AML2 cell growth in a cell viability assay.

LS-411N = format: functional, cell-based
SHP77 = format: functional, cell-based, SHP-77;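 also: growth inhibition of human SHP-77 cells measured by a cell viability assay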
Description: SANGER: Inhibition of human SHP-77 cell growth in a cell viability assay.

U-87 MG = format: functional, cell-based, U-87MG ATCC;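 also: growth inhibition of the cells measured with a viability assay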
Description: SANGER: Inhibition of human U-87-MG cell growth in a cell viability assay.

697 = format: functional, cell-based
Description: SANGER: Inhibition of human 697 cell growth in a cell viability assay.

NCI-H226 = format: functional, cell-based;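 also: cell viability read-out used to gauge growth inhibition of the cells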
Description: SANGER: Inhibition of human NCI-H226 cell growth in a cell viability assay.

KM-H2 = format: functional, cell-based;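 also: growth inhibition of KM-H2 cells, read out by a cell viability assay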
Description: SANGER: Inhibition of human KM-H2 cell growth in a cell viability assay.

LS-1034 = format: functional, cell-based
Description: SANGER: Inhibition of human LS-1034 cell growth in a cell viability assay.

DU-4475 = format: functional, cell-based
Description: SANGER: Inhibition of human DU-4475 cell growth in a cell viability assay.

ES4 = format: functional, cell-based;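 also: growth inhibition of human ES4 cells, read out by a cell viability assay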
Description: SANGER: Inhibition of human ES4 cell growth in a cell viability assay.

A388 = format: functional, cell-based;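 also: growth inhibition of human A388 cells, read out with a cell viability assay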
Description: SANGER: Inhibition of human A388 cell growth in a cell viability assay.

GI-1 = format: functional, cell-based;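 also: growth inhibition of human GI-1 cells, measured with a cell viability readout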
Description: SANGER: Inhibition of human GI-1 cell growth in a cell viability assay.

C2BBe1 = format: functional, cell-based;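 also: growth inhibition of C2BBe1 cells, read out through a viability assay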
Description: SANGER: Inhibition of human C2BBe1 cell growth in a cell viability assay.

Ramos-2G6-4C10 = format: functional, cell-based;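 also: growth inhibition of the cell line, measured by a cell viability read-out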
Description: SANGER: Inhibition of human Ramos-2G6-4C10 cell growth in a cell viability assay.

COLO-824 = format: functional, cell-based
Description: SANGER: Inhibition of human COLO-824 cell growth in a cell viability assay.

IA-LM = format: functional, cell-based;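 also: cell viability assay measuring growth inhibition of human IA-LM cells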
Description: SANGER: Inhibition of human IA-LM cell growth in a cell viability assay.

NB5 = format: functional, cell-based;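 also: growth inhibition of NB5 cells, read out as cell viability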
Description: SANGER: Inhibition of human NB5 cell growth in a cell viability assay.

L-428 = format: functional, cell-based
Description: SANGER: Inhibition of human L-428 cell growth in a cell viability assay.

LXF-289 cell line = format: functional, cell-based
Description: SANGER: Inhibition of human LXF-289 cell growth in a cell viability assay.

ACN = format: functional, cell-based;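 also: growth inhibition of the human ACN cell line, read out via cell viability testing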
Description: SANGER: Inhibition of human ACN cell growth in a cell viability assay.

HT = format: functional, cell-based
Description: SANGER: Inhibition of human HT cell growth in a cell viability assay.

GT3TKB = format: functional, cell-based;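 also: growth inhibition of the cell line, read out with a cell viability assay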
Description: SANGER: Inhibition of human GT3TKB cell growth in a cell viability assay.

SW 954 = format: functional, cell-based;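 also: growth inhibition of SW954 human cancer cells, read out as cell viability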
Description: SANGER: Inhibition of human SW954 cell growth in a cell viability assay.

SK-PN-DW = format: functional, cell-based;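 also: growth inhibition measured with a viability assay on these cells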
Description: SANGER: Inhibition of human SK-PN-DW cell growth in a cell viability assay.

RPMI-8866 = format: functional, cell-based
Description: SANGER: Inhibition of human RPMI-8866 cell growth in a cell viability assay.

MHH-PREB-1 = format: functional, cell-based;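 also: cell viability assay measuring inhibition of proliferation of human MHH-PREB-1 cells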
Description: SANGER: Inhibition of human MHH-PREB-1 cell growth in a cell viability assay.

LB1047-RCC = format: functional, cell-based;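 also: inhibition of cell growth, determined with a cell viability assay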
Description: SANGER: Inhibition of human LB1047-RCC cell growth in a cell viability assay.

QIMR-WIL = format: functional, cell-based;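 also: growth inhibition of QIMR-WIL cells, read out with a cell viability assay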
Description: SANGER: Inhibition of human QIMR-WIL cell growth in a cell viability assay.

LOX IMVI = format: functional, cell-based
Description: SANGER: Inhibition of human LOXIMVI cell growth in a cell viability assay.

A4-Fuk = format: functional, cell-based;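 also: growth inhibition of A4-Fuk cells, read out by a cell viability assay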
Description: SANGER: Inhibition of human A4-Fuk cell growth in a cell viability assay.

TGBC24TKB = format: functional, cell-based;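 also: growth inhibition of human TGBC24TKB cells, read out with a cell viability assay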
Description: SANGER: Inhibition of human TGBC24TKB cell growth in a cell viability assay.

KLE = format: functional, cell-based;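 also: growth inhibition of human KLE cells, read out with a cell viability assay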
Description: SANGER: Inhibition of human KLE cell growth in a cell viability assay.

ML-2 = format: functional, cell-based;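 also: growth inhibition of ML-2 cells, measured with a cell viability readout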
Description: SANGER: Inhibition of human ML-2 cell growth in a cell viability assay.

SF-126 = format: functional, cell-based;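 also: growth inhibition of human SF126 cells, read out with a cell viability assay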
Description: SANGER: Inhibition of human SF126 cell growth in a cell viability assay.

ONS-76 = format: functional, cell-based;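 also: growth inhibition of human ONS-76 cells, read out with a cell viability assay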
Description: SANGER: Inhibition of human ONS-76 cell growth in a cell viability assay.

ES1 = format: functional, cell-based;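 also: growth inhibition of ES1 cells, read out with a cell viability assay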
Description: SANGER: Inhibition of human ES1 cell growth in a cell viability assay.

KM12 = format: functional, cell-based;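 also: KM12 cell growth inhibition, read out with a cell viability assay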
Description: SANGER: Inhibition of human KM12 cell growth in a cell viability assay.

COLO-668 = format: functional, cell-based
Description: SANGER: Inhibition of human COLO-668 cell growth in a cell viability assay.

TK-10 = format: functional, cell-based;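 also: growth inhibition of TK-10 cells, read out in a cell viability assay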
Description: SANGER: Inhibition of human TK10 cell growth in a cell viability assay.

DOHH-2 = format: functional, cell-based;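 also: growth inhibition of human DOHH-2 cells, read out with a cell viability assay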
Description: SANGER: Inhibition of human DOHH-2 cell growth in a cell viability assay.

SNU-C2B = format: functional, cell-based;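 also: cell viability readout used to measure compound-driven suppression of SNU-C2B cell proliferation, IC50 marking half-maximal growth inhibition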
Description: SANGER: Inhibition of human SNU-C2B cell growth in a cell viability assay.

ETK-1 = format: functional, cell-based;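 also: growth inhibition of human ETK-1 cells, read out with a cell viability assay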
Description: SANGER: Inhibition of human ETK-1 cell growth in a cell viability assay.

KNS-81-FD = format: functional, cell-based;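 also: growth inhibition of KNS-81-FD cells, read out with a cell viability assay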
Description: SANGER: Inhibition of human KNS-81-FD cell growth in a cell viability assay.

HCE-4 = format: functional, cell-based;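 also: cell viability assay measuring inhibition of growth in the human HCE-4 cell line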
Description: SANGER: Inhibition of human HCE-4 cell growth in a cell viability assay.

UACC-257 = format: functional, cell-based
Description: SANGER: Inhibition of human UACC-257 cell growth in a cell viability assay.

SNB-75 = format: functional, cell-based;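 also: cell viability assay measuring growth inhibition of human SNB-75 cells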
Description: SANGER: Inhibition of human SNB75 cell growth in a cell viability assay.

DMS-114 = format: functional, cell-based
TE-10 = format: functional, cell-based;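 also: growth inhibition of TE-10 cells, measured by a cell viability assay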
Description: SANGER: Inhibition of human TE-10 cell growth in a cell viability assay.

JVM-3 = format: functional, cell-based;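 also: growth inhibition of human JVM-3 cells, read out with a cell viability assay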
Description: SANGER: Inhibition of human JVM-3 cell growth in a cell viability assay.

COLO-829 = format: functional, cell-based
Description: SANGER: Inhibition of human COLO-829 cell growth in a cell viability assay.

Question: For `CC(=O)c1c(C)c2cnc(Nc3ccc(N4CCNCC4)cn3)nc2n(C2CCCC2)c1=O` [PALBOCICLIB], which IC50 (LB831-BLC) is on record?
Answer: > 4000 nM

Question: What about the IC50 (A101D) of the same compound?
Answer: 3770 nM

Question: What about the IC50 (ES3) of the same compound?
Answer: 729 nM

Question: And the IC50 (HCE-T)?
Answer: > 4000 nM

Question: And the IC50 (K562)?
Answer: > 4000 nM

Question: What about the IC50 (TE-6) of the same compound?
Answer: > 4000 nM

Question: And the IC50 (NB6)?
Answer: 2400 nM

Question: What about the IC50 (BB65-RCC) of the same compound?
Answer: 1510 nM

Question: What about the IC50 (BB30-HNC) of the same compound?
Answer: > 4000 nM

Question: And the IC50 (NB69)?
Answer: 162 nM

Question: What about the IC50 (NCI-H1395) of the same compound?
Answer: > 4000 nM

Question: What about the IC50 (CCRF-CEM) of the same compound?
Answer: > 4000 nM

Question: What about the IC50 (OCI-AML2) of the same compound?
Answer: > 4000 nM

Question: And the IC50 (LS-411N)?
Answer: > 4000 nM

Question: What about the IC50 (SHP77) of the same compound?
Answer: > 4000 nM

Question: And the IC50 (U-87 MG)?
Answer: > 4000 nM

Question: And the IC50 697?
Answer: 148 nM

Question: What about the IC50 (NCI-H226) of the same compound?
Answer: > 4000 nM

Question: What about the IC50 (KM-H2) of the same compound?
Answer: 696 nM

Question: What about the IC50 (LS-1034) of the same compound?
Answer: > 4000 nM

Question: And the IC50 (DU-4475)?
Answer: > 4000 nM

Question: And the IC50 (ES4)?
Answer: 2450 nM

Question: What about the IC50 (A388) of the same compound?
Answer: > 4000 nM

Question: What about the IC50 (GI-1) of the same compound?
Answer: > 4000 nM

Question: What about the IC50 (C2BBe1) of the same compound?
Answer: > 4000 nM

Question: What about the IC50 (Ramos-2G6-4C10) of the same compound?
Answer: 2770 nM

Question: And the IC50 (COLO-824)?
Answer: > 4000 nM

Question: And the IC50 (IA-LM)?
Answer: > 4000 nM

Question: And the IC50 (NB5)?
Answer: > 4000 nM

Question: What about the IC50 (L-428) of the same compound?
Answer: > 4000 nM

Question: And the IC50 (LXF-289 cell line)?
Answer: > 4000 nM

Question: And the IC50 (ACN)?
Answer: > 4000 nM

Question: What about the IC50 (HT) of the same compound?
Answer: > 4000 nM

Question: What about the IC50 (GT3TKB) of the same compound?
Answer: 2590 nM

Question: And the IC50 (SW 954)?
Answer: 929 nM

Question: And the IC50 (SK-PN-DW)?
Answer: > 4000 nM

Question: What about the IC50 (RPMI-8866) of the same compound?
Answer: 1590 nM

Question: What about the IC50 (MHH-PREB-1) of the same compound?
Answer: 637 nM

Question: What about the IC50 (LB1047-RCC) of the same compound?
Answer: 928 nM

Question: And the IC50 (QIMR-WIL)?
Answer: 1130 nM

Question: What about the IC50 (LOX IMVI) of the same compound?
Answer: 1910 nM

Question: What about the IC50 (A4-Fuk) of the same compound?
Answer: > 4000 nM

Question: What about the IC50 (TGBC24TKB) of the same compound?
Answer: > 4000 nM

Question: And the IC50 (KLE)?
Answer: > 4000 nM

Question: And the IC50 (ML-2)?
Answer: 1210 nM

Question: And the IC50 (SF-126)?
Answer: > 4000 nM

Question: What about the IC50 (ONS-76) of the same compound?
Answer: 678 nM

Question: What about the IC50 (ES1) of the same compound?
Answer: 256 nM

Question: What about the IC50 (KM12) of the same compound?
Answer: 1820 nM

Question: What about the IC50 (COLO-668) of the same compound?
Answer: > 4000 nM

Question: And the IC50 (TK-10)?
Answer: 3200 nM

Question: What about the IC50 (DOHH-2) of the same compound?
Answer: > 4000 nM

Question: What about the IC50 (SNU-C2B) of the same compound?
Answer: > 4000 nM

Question: And the IC50 (ETK-1)?
Answer: 3050 nM

Question: What about the IC50 (KNS-81-FD) of the same compound?
Answer: > 4000 nM

Question: What about the IC50 (HCE-4) of the same compound?
Answer: > 4000 nM

Question: What about the IC50 (UACC-257) of the same compound?
Answer: > 4000 nM

Question: What about the IC50 (SNB-75) of the same compound?
Answer: > 4000 nM

Question: What about the IC50 (DMS-114) of the same compound?
Answer: > 4000 nM

Question: What about the IC50 (TE-10) of the same compound?
Answer: > 4000 nM

Question: What about the IC50 (JVM-3) of the same compound?
Answer: 852 nM

Question: How did the IC50 (LB831-BLC) turn out when `Cn1c(=O)n(-c2ccc(C(C)(C)C#N)cc2)c2c3cc(-c4cnc5ccccc5c4)ccc3ncc21` [DACTOLISIB] was run?
Answer: 121 nM

Question: And the IC50 (A101D)?
Answer: 39 nM

Question: What about the IC50 (ES3) of the same compound?
Answer: 25.2 nM

Question: And the IC50 (HCE-T)?
Answer: 83.7 nM

Question: And the IC50 (COLO-829)?
Answer: 296 nM

Question: What about the IC50 (K562) of the same compound?
Answer: > 2000 nM

Question: What about the IC50 (TE-6) of the same compound?
Answer: 220 nM

Question: What about the IC50 (NB6) of the same compound?
Answer: 397 nM

Question: What about the IC50 (BB65-RCC) of the same compound?
Answer: 12.7 nM

Question: What about the IC50 (BB30-HNC) of the same compound?
Answer: 131 nM

Question: And the IC50 (NB69)?
Answer: 22.5 nM

Question: What about the IC50 (NCI-H1395) of the same compound?
Answer: 199 nM

Question: What about the IC50 (CCRF-CEM) of the same compound?
Answer: > 2000 nM

Question: What about the IC50 (OCI-AML2) of the same compound?
Answer: 82.6 nM

Question: What about the IC50 (LS-411N) of the same compound?
Answer: 187 nM

Question: And the IC50 (SHP77)?
Answer: > 2000 nM

Question: What about the IC50 (U-87 MG) of the same compound?
Answer: 301 nM

Question: What about the IC50 697 of the same compound?
Answer: 17.4 nM

Question: What about the IC50 (NCI-H226) of the same compound?
Answer: 708 nM

Question: What about the IC50 (KM-H2) of the same compound?
Answer: 171 nM

Question: And the IC50 (LS-1034)?
Answer: 491 nM

Question: What about the IC50 (DU-4475) of the same compound?
Answer: 9.44 nM

Question: What about the IC50 (ES4) of the same compound?
Answer: 21.1 nM

Question: And the IC50 (A388)?
Answer: 250 nM

Question: And the IC50 (GI-1)?
Answer: 60.3 nM

Question: What about the IC50 (C2BBe1) of the same compound?
Answer: 75 nM

Question: And the IC50 (Ramos-2G6-4C10)?
Answer: 8.49 nM

Question: What about the IC50 (COLO-824) of the same compound?
Answer: 689 nM

Question: What about the IC50 (IA-LM) of the same compound?
Answer: 108 nM

Question: What about the IC50 (NB5) of the same compound?
Answer: 40.6 nM

Question: And the IC50 (L-428)?
Answer: 275 nM

Question: What about the IC50 (LXF-289 cell line) of the same compound?
Answer: 26 nM

Question: What about the IC50 (ACN) of the same compound?
Answer: 81.8 nM

Question: And the IC50 (HT)?
Answer: 41 nM

Question: And the IC50 (GT3TKB)?
Answer: 118 nM

Question: And the IC50 (SW 954)?
Answer: 234 nM

Question: What about the IC50 (SK-PN-DW) of the same compound?
Answer: 235 nM

Question: And the IC50 (RPMI-8866)?
Answer: 72.8 nM

Question: What about the IC50 (MHH-PREB-1) of the same compound?
Answer: 9.12 nM

Question: What about the IC50 (LB1047-RCC) of the same compound?
Answer: 38.8 nM

Question: And the IC50 (QIMR-WIL)?
Answer: 30.6 nM

Question: And the IC50 (LOX IMVI)?
Answer: 15 nM

Question: What about the IC50 (A4-Fuk) of the same compound?
Answer: 46.5 nM

Question: What about the IC50 (TGBC24TKB) of the same compound?
Answer: 222 nM

Question: And the IC50 (KLE)?
Answer: 252 nM

Question: What about the IC50 (ML-2) of the same compound?
Answer: 60.6 nM

Question: What about the IC50 (SF-126) of the same compound?
Answer: 19.4 nM

Question: What about the IC50 (ONS-76) of the same compound?
Answer: 29.1 nM

Question: And the IC50 (ES1)?
Answer: 28.8 nM

Question: What about the IC50 (KM12) of the same compound?
Answer: 236 nM

Question: What about the IC50 (COLO-668) of the same compound?
Answer: 706 nM

Question: And the IC50 (TK-10)?
Answer: 100 nM

Question: And the IC50 (DOHH-2)?
Answer: 46.4 nM

Question: And the IC50 (SNU-C2B)?
Answer: 181 nM

Question: And the IC50 (ETK-1)?
Answer: 7.88 nM

Question: And the IC50 (KNS-81-FD)?
Answer: 19.5 nM

Question: What about the IC50 (HCE-4) of the same compound?
Answer: 262 nM

Question: And the IC50 (UACC-257)?
Answer: 214 nM

Question: And the IC50 (SNB-75)?
Answer: 54.3 nM

Question: And the IC50 (DMS-114)?
Answer: 125 nM

Question: And the IC50 (TE-10)?
Answer: 407 nM

Question: What about the IC50 (JVM-3) of the same compound?
Answer: 30.8 nM
